# Data reported in PMC9516332 (Frontiers in Oncology, 2022).
# pIC50: −log10 of the molar value. Where two headings read alike, the source gives them in different places.
# Tested on: 134 cancer cell lines
# Assay: Cell viability assay (ATPlite, 72 hours), IC50 on cancer cell line panel
smiles,measurement,setting,value
CCc1nc(C(N)=O)c(Nc2ccc(N3CCC(N4CCN(C)CC4)CC3)c(OC)c2)nc1NC1CCOCC1 [gilteritinib],pIC50,"Homo sapiens, MOLT-4, read-out: IC50 in cell proliferation assay, MOLT-4 cell line",6.00
same,pIC50,"Homo sapiens, MV4-11, read-out: IC50 in cell proliferation assay, MV4-11 cell line (FLT3 ITD)",9.08
same,pIC50,"Homo sapiens, MeWo, read-out: IC50 in cell proliferation assay, MeWo cell line",6.47
same,pIC50,"Homo sapiens, NCCIT, read-out: IC50 in cell proliferation assay, NCC-IT cell line",6.51
same,pIC50,"Homo sapiens, NCI-H82, read-out: IC50 in cell proliferation assay, cell line NCI-H82",6.52
same,pIC50,"Homo sapiens, NCI-H460, read-out: IC50 in cell proliferation assay, NCI-H460 cell line",6.30
same,pIC50,"Homo sapiens, NCI-H661, read-out: IC50 in cell proliferation assay, NCI-H661 cell line",6.63
same,pIC50,"Homo sapiens, NCI-H716, read-out: IC50 in cell proliferation assay, cell line NCI-H716 (FGFR2-COL14A1)",6.23
same,pIC50,"Homo sapiens, NCI-H1650, read-out: IC50 in cell proliferation assay, NCI-H1650 cell line (EGFR exon19del)",6.33
same,pIC50,"Homo sapiens, NCI-H1975, read-out: IC50 in cell proliferation assay, NCI-H1975 cell line (EGFR p.L858R + p.T790M)",6.31
same,pIC50,"Homo sapiens, NCI-H2228, read-out: IC50 in cell proliferation assay, NCI-H2228 cell line (EML4-ALK)",8.74
same,pIC50,"Homo sapiens, OVCAR-3, read-out: IC50 in cell proliferation assay, cell line OVCAR-3",6.23
same,pIC50,"Homo sapiens, PFSK-1, read-out: IC50 in cell proliferation assay, cell line PFSK-1",6.50
same,pIC50,"Homo sapiens, RL95-2, read-out: IC50 in cell proliferation assay, cell line RL95-2 (EGFR p.A289V)",6.75
same,pIC50,"Homo sapiens, RPMI-7951, read-out: IC50 in cell proliferation assay, cell line RPMI-7951 (BRAF p.V600E)",6.19
same,pIC50,"Homo sapiens, RS4-11, read-out: IC50 in cell proliferation assay, cell line RS4;11",6.41
same,pIC50,"Homo sapiens, Rec1, read-out: IC50 in cell proliferation assay, cell line REC-1",5.86
same,pIC50,"Homo sapiens, SHP77, read-out: IC50 in cell proliferation assay, cell line SHP-77",5.61
same,pIC50,"Homo sapiens, SK-BR-3, read-out: IC50 in cell proliferation assay, cell line SK-BR-3 (ERBB2 amplification)",4.90
same,pIC50,"Homo sapiens, SK-N-AS, read-out: IC50 in cell proliferation assay, cell line SK-N-AS",6.36
same,pIC50,"Homo sapiens, SK-N-FI, read-out: IC50 in cell proliferation assay, cell line SK-N-FI",6.62
same,pIC50,"Homo sapiens, SK-N-MC, read-out: IC50 in cell proliferation assay, cell line SK-N-MC",6.62
same,pIC50,"Homo sapiens, SK-N-SH, read-out: IC50 in cell proliferation assay, cell line SK-N-SH (ALK p.F1174L)",6.38
same,pIC50,"Homo sapiens, SNU-5, read-out: IC50 in cell proliferation assay, cell line SNU-5 (MET amplification)",6.33
same,pIC50,"Homo sapiens, SNU-16, read-out: IC50 in cell proliferation assay, cell line SNU-16 (FGFR2 amplification)",5.96
same,pIC50,"Homo sapiens, SNU-C2B, read-out: IC50 in cell proliferation assay, cell line SNU-C2B (EGFR p.R165Q)",6.45
same,pIC50,"Homo sapiens, SU-DHL-1, read-out: IC50 in cell proliferation assay, cell line SU-DHL-1 (NPM1-ALK)",7.72
same,pIC50,"Homo sapiens, SU-DHL-6, read-out: IC50 in cell proliferation assay, cell line SU-DHL-6",6.00
same,pIC50,"Homo sapiens, SUP-T1, read-out: IC50 in cell proliferation assay, cell line SUP-T1",6.02
same,pIC50,"Homo sapiens, SW48, read-out: IC50 in cell proliferation assay, cell line SW48 (EGFR p.G719S)",6.54
same,pIC50,"Homo sapiens, SW480, read-out: IC50 in cell proliferation assay, cell line SW480",5.87
same,pIC50,"Homo sapiens, SW626, read-out: IC50 in cell proliferation assay, cell line SW626",6.26
same,pIC50,"Homo sapiens, SW780, read-out: IC50 in cell proliferation assay, cell line SW780 (FGFR3-BAIAP2L1)",6.32
same,pIC50,"Homo sapiens, SW837, read-out: IC50 in cell proliferation assay, cell line SW837",5.71
same,pIC50,"Homo sapiens, SW872, read-out: IC50 in cell proliferation assay, cell line SW872 (BRAF p.V600E)",6.52
same,pIC50,"Homo sapiens, SW900, read-out: IC50 in cell proliferation assay, cell line SW900",6.50
same,pIC50,"Homo sapiens, SW948, read-out: IC50 in cell proliferation assay, cell line SW948",6.10
same,pIC50,"Homo sapiens, SW982, read-out: IC50 in cell proliferation assay, cell line SW982 (BRAF p.V600E)",6.49
same,pIC50,"Homo sapiens, SW-620, read-out: IC50 in cell proliferation assay, cell line SW620",6.28
same,pIC50,"Homo sapiens, T98G, read-out: IC50 in cell proliferation assay, cell line T98G",6.09
same,pIC50,"Homo sapiens, TCC-SUP, read-out: IC50 in cell proliferation assay, cell line TCCSUP",6.49
same,pIC50,"Homo sapiens, THP-1, read-out: IC50 in cell proliferation assay, cell line THP-1",5.95
same,pIC50,"Homo sapiens, U2OS, read-out: IC50 in cell proliferation assay, cell line U2OS",6.65
same,pIC50,"Homo sapiens, U-87 MG, read-out: IC50 in cell proliferation assay, cell line U-87MG ATCC",5.65
same,pIC50,"Homo sapiens, U-118-MG, read-out: IC50 in cell proliferation assay, cell line U-118MG",5.87
same,pIC50,"Homo sapiens, UMUC3, read-out: IC50 in cell proliferation assay, cell line UM-UC-3",6.34
same,pIC50,"Hs766T, read-out: IC50 in cell proliferation assay, Hs 766T cell line",6.46
same,pIC50,"L-82, read-out: IC50 in cell proliferation assay, L-82 cell line (NPM1-ALK)",8.70
same,pIC50,"Rh30, read-out: IC50 in cell proliferation assay, cell line Rh30",6.45
same,pIC50,"read-out: IC50 in cell proliferation assay, 11-18 cell line (EGFR p.L858R)",6.24
same,pIC50,"read-out: IC50 in cell proliferation assay, Hs 852.T cell line",6.71
same,pIC50,"read-out: IC50 in cell proliferation assay, JAR cell line",6.32
same,pIC50,"read-out: IC50 in cell proliferation assay, cell line 5637",6.26
same,pIC50,"read-out: IC50 in cell proliferation assay, cell line A-388",5.89
same,pIC50,"read-out: IC50 in cell proliferation assay, cell line DB",6.05
same,pIC50,"read-out: IC50 in cell proliferation assay, cell line DEL (NPM1-ALK)",8.59
same,pIC50,"read-out: IC50 in cell proliferation assay, cell line ES-2 (BRAF p.V600E)",6.15
same,pIC50,"read-out: IC50 in cell proliferation assay, cell line PA-1",6.31
same,pIC50,"read-out: IC50 in cell proliferation assay, cell line PC-3",6.05
same,pIC50,"read-out: IC50 in cell proliferation assay, cell line RD",6.54
same,pIC50,"read-out: IC50 in cell proliferation assay, cell line RKO (BRAF p.V600E)",5.87
same,pIC50,"read-out: IC50 in cell proliferation assay, cell line RL",5.58
same,pIC50,"read-out: IC50 in cell proliferation assay, cell line RT-4 (FGFR3-TACC3)",5.86
same,pIC50,"read-out: IC50 in cell proliferation assay, cell line SR (NPM1-ALK)",7.66
same,pIC50,"read-out: IC50 in cell proliferation assay, cell line T24",6.48
same,pIC50,"read-out: IC50 in cell proliferation assay, cell line TT (RET p.C634W)",6.75
same,pIC50,"read-out: IC50 in cell proliferation assay, cell line VA-ES-BJ",6.37
